Where “and” joins values, the source holds several entries; their conditions need not be identical. Equal values may be shown once. Entries after “also recorded” stand apart in the source; their conditions may differ. Read-outs that look alike come from different tables or passages of the source.
Key:
HC110-R [1] = format: cell-based, Haemonchus contortus; settings: for α-LTX-induced increase in [Ca2+]i after preincubation: substance removed, then 75 nM α-LTX
Protocol: The intracellular free Ca^2+ concentration [Ca^2+]i was measured in COS-7 and HEK293 cells transiently transfected with the HC110-R-EGFP or β2-AR-EGFP construct using the calcium imaging method (see also FIG. 11). In each case 2×10^5 COS-7 and HEK293 cells were applied to a 42 mm cover glass coated with 1% gelatine in 55 mm tissue culture dishes with 5 ml of DMEM medium (with 10% FCS and pen/strep). The transfection took place with the aid of the non-liposomal transfection reagent FuGENE 6 (Roche Molecular Biochemicals, Mannheim). […] Constructs of the HC110-R full-length clone with a GFP tag fused in the correct reading frame, and the complete cDNA of the β2-adrenergic receptor which had likewise been provided with a GFP tag at the 3′ end, were transfected.
After the incubation, the cells loaded with Fura-2/AM were examined under an inverted microscope (Zeiss, Axiovert, Germany) and, in parallel with this, in a digital imaging fluorescence microscope (PTI) and differentiated into transfected and untransfected cells at a wavelength of 440 and 490 nm respectively. On average, 5-7 transfected and non transfected cells were selected by fixing an ROI (region of interest). The extinction was measured at 340 nm (calcium-bound Fura-2/AM) and 380 nm (free Fura-2/AM), and the emission was measured at 510 nm. Evaluation took place using the Image Master 1.x software by forming the quotient of 340:510 nm, 380:510 nm and the ratio of 340/380:510 nm (background corrected images) as a function of the agent added.
Agents were always added 6 min after starting the measurement by removing an appropriate volume of Na^+ HBS buffer and pipetting the agent directly into the sample vessel for a further 30 to 50 min. The total volume in the sample vessel was constant at 1.5 ml throughout the experiment. […] Addition of CdCl2 and nifedipine took place immediately at the start of the experiment and before addition of α-LTX, and EGTA was added both at the start of the experiment and 4 min after the addition of α-LTX. Dissolved α-LTX was present in a concentration of 300 nM in 50 mM tris-HCl, pH 8.0; BAY 44-4400 was initially dissolved in pure DMSO (stock solutions between 0.004 and 10 μg/ml). The stock solutions were adjusted to the required concentration in the Na^+ HBS buffer. The maximum amount of the active substance BAY 44-4400 which could be dissolved at a final concentration of 0.1% DMSO was found by setting up serial dilutions in Na^+ HBS.
The data were analyzed using the Excel 98 table calculation programme. The results are derived from at least 2-4 reproduced experiments on in each case 4-8 transfected and un-transfected cells.

HC110-R [2] = assay: Ca2+ imaging of HEK-293 cells expressing HC110-R-Myc/His; format: cell-based, Haemonchus contortus; settings: stably expressing cells; 400 ng/ml added 6 min before 75 nM α-LTX
nematodes [3] = assay: Anthelmintic / neuropharmacological activity on nematodes
nematodes [4] = settings: depending on the particular species (Terada, 1992); cited from earlier work
HEK-293 cells = assay: PF1022A binding by FACScan, untransfected and GFP-transfected control cells; design: species or system human; settings: for Phycoerythrin fluorescence: 0.5 μg/ml PF1022A-biotin + streptavidin-phycoerythrin
Protocol: (§1) For this purpose, HEK-293 cells were transiently transfected with HC110-R-GFP or GFP-HC110-R or else transiently cotransfected with HC110-R-Myc/His and GFP. […] 24 h after the transfection, the cells were incubated with biotinylated PF1022A, and PF1022A-bound cells were detected using streptavidin-phycoerythrin and were finally fixed. A negative control of cells transfected with HC110-R-GFP was incubated only with streptavidin-phycoerythrin without PF1022A-biotin.
(§2) Phycoerythrin has—like TRITC—an absorption spectrum which overlaps with EGFP, while the emission spectra are adequately separated, so that both fluorochromes can be excited at only one wavelength. Cell detritus was excluded from the measurement of the fluorescence intensity by setting a ‘gate’ on the main cell population. For quantitative evaluation, the limits were fixed for negative, unstained and positive, GFP-fluorescent cells on the basis of the untransfected and GFP-transfected cells.
(§3) In each case 5×10^5 HEK-293 cells which were not transfected, were transiently transfected with GFP, HC110-R-GFP, GFP-HC110-R, β2-R-GFP and M1-R-GFP, and transiently cotransfected with HC110-R-Myc/His and GFP were incubated, 24 h after the transfection, with 0.5 μg/ml PF1022A-biotin and streptavidin-phycoerythrin (1:300) and then fixed. As negative controls, HC110-R-GFP-transfected cells were incubated only with streptavidin-phycoerythrin, without PF1022A-biotin. […] The standard deviation is derived by determining the means of triplicate mixtures.

HC110-R [5] = assay: PF1022A binding to HC110-R-transfected HEK-293 cells by FACScan; design: species or system Haemonchus contortus; settings: for Phycoerythrin fluorescence: 0.5 μg/ml PF1022A-biotin + streptavidin-phycoerythrin
Protocol: as §1, §2, §3

β2-R-GFP = target: T1, β2-R-GFP (Mus musculus, UniProt P18762); assay: PF1022A binding by FACScan, β2-R-GFP control cells
T1 construct: was fused with a C-terminal EGFP tag by amplifying the full-length cDNA with the P117 mouse 2AR XhoI 5′ primer; expressed in transfected cells; host or cells: HEK-293, transient (pEGFP-N3)
Protocol: as §1, §2
(§4) In each case 5×10^5 HEK-293 cells which were not transfected, were transiently transfected with GFP, HC110-R-GFP, GFP-HC110-R, β2-R-GFP and M1-R-GFP, and transiently cotransfected with HC110-R-Myc/His and GFP were incubated, 24 h after the transfection, with 0.5 μg/ml PF1022A-biotin and streptavidin-phycoerythrin (1:300) and then fixed. […]

HC110-R [6] = format: binding, Haemonchus contortus; settings: mixture of N terminus and C terminus expressed in E. coli
Protocol: In a control mixture with 4 mg of Dynal beads, TST buffer was added in place of PF1022A. Excess PF1022A-biotin was removed by magnetic separation before a mixture of the HC110-R terminus and C terminus expressed in E. coli and previously purified by affinity chromatography was added. After renewed magnetic separation to remove unbound HC110-R fragments, one aliquot derived from 2 mg, and one from 4 mg, of Dynal beads was fractionated by SDS-PAGE and blotted. Detection of the precipitate took place via the N-terminally fused His tag with a mouse anti-His IgG and a rabbit anti-mouse IgG HRP antibody. […] Nonspecific binding of the N or C terminus of HC110-R to the streptavidin-coupled beads was precluded by adding no biotinylated PF1022A to a reaction mixture.

HC110-R [7] = format: binding, Haemonchus contortus; settings: renatured; fragment expressed in E. coli
Description: Since denaturation of proteins is necessary for carrying out SDS-PAGE, there may be destruction of conformation-dependent epitopes. Antibodies or proteins which specifically recognize such epitopes may therefore no longer bind. […] BAY44-4400 differs from PF1022A by 2 morpholine residues which are covalently bonded to the phenyl rings of the two D-phenyllactyl radicals of PF1022A. […] For this purpose, total protein from untransfected HEK-293 cells and HEK-293 cells which transiently express HC110-R-Myc/His, and from the 54 kDa N terminus and the 21 kDa C terminus of HC110-R which were expressed in E. coli, were fractionated by SDS-PAGE, renatured and blotted in the usual way. […] In addition, a partially renatured SDS polyacrylamide gel with the protein fractions of untransfected HEK-293 cells, HEK-293 cells transiently transfected with HC110-R-Myc/His, and the N terminus of HC110-R expressed in E. coli and total protein from H. contortus was blotted, incubated with PF1022A-biotin and detected using streptavidin HRP.

M1-R-GFP = target: T2, M1-R-GFP (Homo sapiens, UniProt P11229); assay: PF1022A binding by FACScan, M1-R-GFP control cells
T2 construct: The full-length cDNA of a human muscarinic receptor 1 (huM1Rez); expressed in transfected cells; host or cells: HEK-293, transient (pEGFP-N3)
T2 sequence (P11229 1-460): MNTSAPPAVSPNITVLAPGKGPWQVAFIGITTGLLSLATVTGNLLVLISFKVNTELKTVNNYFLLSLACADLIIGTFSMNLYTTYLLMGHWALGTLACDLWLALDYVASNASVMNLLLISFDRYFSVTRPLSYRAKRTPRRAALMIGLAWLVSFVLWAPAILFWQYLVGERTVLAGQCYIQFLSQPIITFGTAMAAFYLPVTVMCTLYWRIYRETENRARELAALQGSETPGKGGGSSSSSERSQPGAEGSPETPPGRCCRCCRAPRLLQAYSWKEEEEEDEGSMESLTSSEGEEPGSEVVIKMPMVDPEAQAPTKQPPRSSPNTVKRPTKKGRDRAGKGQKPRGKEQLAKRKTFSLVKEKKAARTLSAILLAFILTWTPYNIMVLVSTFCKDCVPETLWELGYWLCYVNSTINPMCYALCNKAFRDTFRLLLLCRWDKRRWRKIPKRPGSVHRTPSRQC
Protocol: as §1, §2, §4

T1 sequence (P18762 whole entry, the tested form may be a part): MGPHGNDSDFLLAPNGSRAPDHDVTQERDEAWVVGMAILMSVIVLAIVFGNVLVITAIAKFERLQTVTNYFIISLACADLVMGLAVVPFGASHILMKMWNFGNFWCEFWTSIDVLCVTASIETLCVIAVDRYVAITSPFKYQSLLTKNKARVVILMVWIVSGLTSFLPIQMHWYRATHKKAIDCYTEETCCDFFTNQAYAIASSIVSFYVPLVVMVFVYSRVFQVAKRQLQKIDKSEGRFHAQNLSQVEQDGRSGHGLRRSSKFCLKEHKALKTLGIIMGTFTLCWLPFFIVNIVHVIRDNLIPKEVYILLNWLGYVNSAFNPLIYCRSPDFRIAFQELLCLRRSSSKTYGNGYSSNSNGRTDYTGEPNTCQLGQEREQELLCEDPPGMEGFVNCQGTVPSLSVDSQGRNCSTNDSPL

O=C(O)CN(CCOCCOCCN(CC(=O)O)CC(=O)O)CC(=O)O [EGTA]
α-LTX-induced increase in [Ca2+]i with extracellular Ca2+ removed (HC110-R [1]; 2 mM EGTA before or after addition of α-LTX): only a small increase

CC(C)C[C@@H]1C(=O)O[C@@H](Cc2ccccc2)C(=O)N(C)[C@H](CC(C)C)C(=O)O[C@@H](C)C(=O)N(C)[C@H](CC(C)C)C(=O)O[C@@H](Cc2ccccc2)C(=O)N(C)[C@H](CC(C)C)C(=O)O[C@@H](C)C(=O)N1C [PF1022-001, cyclo(-L-Lac-D-MeLeu-L-PhLac-D-Me-Leu-)2]
α-LTX-induced increase in [Ca2+]i in presence of substance (HC110-R [1]; 4 ng/ml added 6 min before 75 nM α-LTX): 103 ± 11.5 nM | α-LTX-induced increase in [Ca2+]i in presence of substance (HC110-R [1]; 4 ng/ml added 6 min before 75 nM α-LTX, listed as optical antipode): 67 nM | change in [Ca2+]i after preincubation with substance alone (HC110-R [1]; 4 ng/ml or 400 ng/ml, 90 min preincubation, no α-LTX): no change in [Ca^2+]i | α-LTX-induced increase in [Ca2+]i after preincubation (HC110-R [1]; 4 ng/ml, 90 min preincubation): 102 ± 6.4 nM | α-LTX-induced increase in [Ca2+]i in presence of substance (HC110-R [1]; 400 ng/ml added 6 min before 75 nM α-LTX): 112+14.3 nM | Ca2+ response to substance alone (HC110-R [1]; 400 ng/ml where stated, no α-LTX, up to 50 min or 90 min preincubation): neither the very effective nematicide BAY44-4400 nor the virtually ineffective antipode PF1022-001 induces a Ca^2+ response | α-LTX-induced increase in [Ca2+]i after preincubation (HC110-R [1]; 400 ng/ml, 90 min preincubation): 109 ± 8.4 nM and 110 nM | reduction of α-LTX-induced Ca2+ increase (HC110-R [1]; 400 ng/ml, 90 minutes preincubation, 6 minutes after 75 nM α-LTX): 59% | Ca2+-mediated response to substance alone (HC110-R [1]; 100, 300 or 400 ng/ml and 1 or 10 μg/ml, 50 min, untransfected and HC110-R-GFP-transfected cells): At no concentration was a Ca^2+-mediated response detectable | α-LTX-induced increase in Ca2+ at increased concentration of substance (HC110-R [1]; concentration above 4 ng/ml, added 6 minutes before 75 nM α-LTX): 20 nM | α-LTX-induced increase in [Ca2+]i in presence of substance (HC110-R [2]): 209 ± 33.4 nM | anthelmintic / nematicidal activity in words (nematodes [3]): has no anthelmintic activity; also recorded: virtually ineffective

CC(C)C[C@H]1C(=O)O[C@H](Cc2ccccc2)C(=O)N(C)[C@@H](CC(C)C)C(=O)O[C@H](C)C(=O)N(C)[C@@H](CC(C)C)C(=O)O[C@H](Cc2ccccc2)C(=O)N(C)[C@@H](CC(C)C)C(=O)O[C@H](C)C(=O)N1C [PF1022A, cyclo(-D-Lac-L-MeLeu-D-PhLac-L-MeLeu-)2]
concentrations at which effect on nematodes is exerted (nematodes [4]): 100 to 800 ng/mL | change in response to α-LTX after preincubation (HC110-R [1]; 4 ng/ml or 400 ng/ml, 90 minutes preincubation, removed before α-LTX): no significant change in their response to α-LTX | percentage of green-fluorescent cells that bind PF1022A (HEK-293 cells; cells expressing GFP): 7.5% | Phycoerythrin fluorescence (HEK-293 cells; plasmid GFP): 1.3 ± 0.4% | Phycoerythrin fluorescence (HEK-293 cells; untransfected): 0 ± 0% | percentage of green-fluorescent cells that bind PF1022A (HC110-R [5]; cells cotransfected with HC110-R-Myc/His and GFP): 44.5% | percentage of green-fluorescent cells that bind PF1022A (HC110-R [5]; cells expressing GFP-HC110-R): 26.8% | percentage of green-fluorescent cells that bind PF1022A (HC110-R [5]; cells expressing HC110-R-GFP): 41.2% | Phycoerythrin fluorescence (HC110-R [5]; plasmid GFP-HC110-R): 2.5 ± 0.3% | Phycoerythrin fluorescence (HC110-R [5]; plasmid HC110-R-GFP, nonspecific staining subtracted): 4.5 ± 0.4% | Phycoerythrin fluorescence (HC110-R [5]; plasmids HC110-R-Myc/His + GFP): 10.3 ± 0.7% | Phycoerythrin fluorescence (β2-R-GFP): 0.8 ± 0.1% | percentage of green-fluorescent cells that bind PF1022A (β2-R-GFP; cells expressing 2-R-GFP): 9.9% | precipitation of HC110-R fragments (HC110-R [6]): Only the N-terminal 54 kDa region of HC110-R is precipitated | binding to 21 kDa C terminus of HC110-R (HC110-R [7]): no specific PF1022A binding | Phycoerythrin fluorescence (M1-R-GFP): 1.6 ± 0.1% | percentage of green-fluorescent cells that bind PF1022A (M1-R-GFP; cells expressing M1-R-GFP): 19.2%

C1CNCCN1 [piperazine]
effect of piperazine on activity of PF1022A/BAY44-4400 (Heterakis spumosa): synergistically enhances the effect of PF1022A/BAY44-4400 | change in Ca2+ balance, piperazine alone (HC110-R [1]; 10 μM piperazine, untransfected and HC110-R-GFP-transfected cells): no change in the Ca^2+ balance
